Earlier results as cited in US20250228877A1, “MANAGEMENT OF SKIN AILMENTS” (priority 2021, published 2025).

Experiments:
[1] = 1-4% IP-6 in drinking water; measured by gadolinium uptake
[2] = test system: human umbilical vein endothelial cell (HUVEC) tube formation; settings: after 24 hours; reconstituted extracellular matrix
[3] = 7 days following treatment

O=P(O)(O)O[C@H]1[C@H](OP(=O)(O)O)[C@@H](OP(=O)(O)O)[C@H](OP(=O)(O)O)[C@@H](OP(=O)(O)O)[C@H]1OP(=O)(O)O [IP-6, myo-inositol hexakisphosphate]
angiogenesis evaluated by micro-vessel density (MVD) [1]: inhibited angiogenesis
number of capillaries [2]: reduction
vascularity (number of blood vessel formation) [3]: inhibited vascularity
